Measurements: ChEMBL document CHEMBL4376886, “Design, Synthesis, and Evaluation of Novel Enterovirus 71 Inhibitors as Therapeutic Drug Leads for the Treatment of Human Hand, Foot, and Mouth Disease” (J Med Chem, 2020)

Experiments:
[1] = Inhibition of capsid protein VP1 in Enterovirus 71 (FY)-Luc infected in human RD cells assessed as reduction in virus-induced cell death preincubated for 24 hrs followed by […] substrate addition and measured after 5 mins by chemiluminescence analysis; type: cell-based, Enterovirus A71; details: Enterovirus A
[2] = Cytotoxicity against human RD cells assessed as reduction in cell viability incubated for 24 hrs by MTT assay; details: RD cells
[3] = Acute toxicity in juvenile zebrafish assessed as fatality rate at 200 uM after 48 hrs; details: in vivo
[4] = Acute toxicity in juvenile zebrafish assessed as fatality rate at 50 uM after 48 hrs; details: in vivo
[5] = Acute toxicity in juvenile zebrafish assessed as fatality rate at 100 uM after 24 hrs; details: in vivo
[6] = Acute toxicity in juvenile zebrafish assessed as fatality rate at 20 uM after 24 hrs; details: in vivo
[7] = in vivo; details: zebrafish
Description: Acute toxicity in juvenile zebrafish assessed as fatality rate at 150 uM after 48 hrs

[8] = Acute toxicity in juvenile zebrafish assessed as fatality rate at 100 uM after 48 hrs; details: in vivo
[9] = in vivo; details: zebrafish; remark: listed apart in the source
Description: Acute toxicity in juvenile zebrafish assessed as fatality rate at 150 uM after 24 hrs

[10] = Acute toxicity in juvenile zebrafish assessed as fatality rate at 20 uM after 48 hrs; details: in vivo
[11] = Acute toxicity in juvenile zebrafish assessed as fatality rate at 50 uM after 24 hrs; details: in vivo
[12] = Acute toxicity in juvenile zebrafish assessed as fatality rate at 200 uM after 24 hrs; details: in vivo
[13] = Acute toxicity in juvenile zebrafish assessed as pericarditis at 100 uM after 24 hrs; set-up: species or system Danio rerio; details: in vivo

Row | Structure (SMILES) | EC50 [1] [nM] | CC50 at 24 h [2] [µM] | mortality at 48 h, 200 µM [3] [%] | mortality at 48 h, 50 µM [4] [%] | mortality at 24 h, 100 µM [5] [%] | mortality at 24 h, 20 µM [6] [%] | mortality at 48 h, 150 µM [7] [%] | mortality at 48 h, 100 µM [8] [%] | mortality at 24 h, 150 µM [9] [%] | mortality at 48 h, 20 µM [10] [%] | mortality at 24 h, 50 µM [11] [%] | mortality at 24 h, 200 µM [12] [%] | Activity [13]
1 | CCc1nc(-c2cc(C)c(OCCC(C)CCN3CCN(c4ccnc(N)c4)C3=O)c(C)c2)no1 (stereo not given) | > 25 | 15.7 |  |  |  |  |  |  |  |  |  |  | 
2 | CCO/N=C/c1ccc(OCCCCN2CCN(c3ccnc(N)c3)C2=O)cc1 | > 25 | > 100 |  |  |  |  |  |  |  |  |  |  | 
3 | Cc1nc(-c2cc(C)c(OCCC(C)CCN3CCN(c4ccnc(N)c4)C3=O)c(C)c2)no1 (stereo not given) | > 25 | 28.8 |  |  |  |  |  |  |  |  |  |  | 
4 | CCO/N=C/c1ccc(OCCC(C)CCN2CCN(c3ccnc(OC)c3)C2=O)cc1 (stereo not given) | 10 | > 100 | 100 | 100 | 100 | 100 | 100 | 100 | 100 | 100 | 100 | 100 | 
5 | CCONC(=O)c1ccc(OCCC(C)CCN2CCN(c3ccnc(N)c3)C2=O)cc1 (stereo not given) | > 25 | > 100 |  |  |  |  |  |  |  |  |  |  | 
6 | CCc1nc(-c2ccc(OCCC(C)CCN3CCN(c4ccnc(N)c4)C3=O)cc2)no1 (stereo not given) | 0.0084 | > 100 | 100 | 100 | 30 | 40 | 100 | 100 | 80 | 60 | 10 | 100 | 
7 | CCCc1nc(-c2cc(C)c(OCCC(C)CCN3CCN(c4ccnc(N)c4)C3=O)c(C)c2)no1 (stereo not given) | > 25 | 14.1 |  |  |  |  |  |  |  |  |  |  | 
8 | CCO/N=C/c1ccc(OCCCCCN2CCN(c3ccnc(N)c3)C2=O)cc1 | 0.072 | 59 | 100 | 100 | 100 | 20 | 100 | 100 | 100 | 20 | 0 | 100 | 
9 | CCCc1nc(-c2ccc(OCCC(C)CCN3CCN(c4ccnc(N)c4)C3=O)cc2)no1 (stereo not given) | 0.15 | > 100 | 100 | 100 | 100 | 40 | 100 | 100 | 100 | 60 | 100 | 100 | 
10 | CCO/N=C/c1ccc(OCC#CCN2CCN(c3ccnc(N)c3)C2=O)cc1 | > 25 | > 100 |  |  |  |  |  |  |  |  |  |  | 
11 | CC(CCOc1ccc(-c2noc(C(F)(F)F)n2)cc1)CCN1CCN(c2ccnc(N)c2)C1=O (stereo not given) | 0.537 | 48.1 | 100 | 50 | 70 | 0 | 100 | 100 | 80 | 0 | 30 | 100 | 
12 | CCO/N=C/c1ccc(OCCC(C)CCN2CCN(c3ccccc3)C2=O)cc1 (stereo not given) | 1.12 | > 100 | 100 | 100 | 100 | 100 | 100 | 100 | 100 | 100 | 100 | 100 | 
13 | CC(CCOc1ccc(/C=N/O)cc1)CCN1CCN(c2ccnc(N)c2)C1=O (stereo not given) | > 25 | > 100 |  |  |  |  |  |  |  |  |  |  | 
14 | CC(CCN1CCN(Cc2ccccc2)CC1)CCN1CCN(c2ccnc(N)c2)C1=O (stereo not given) | > 25 | > 100 |  |  |  |  |  |  |  |  |  |  | 
15 | Cc1nc(-c2ccc(OCCC(C)CCN3CCN(c4ccnc(N)c4)C3=O)cc2)no1 (stereo not given) | 0.0061 | 66.1 | 100 | 0 | 0 | 0 | 100 | 100 | 10 | 0 | 0 | 100 | 
16 | CCO/N=C/c1ccc(OCCC(C)CCN2CCN(c3cccc(N)c3)C2=O)cc1 (stereo not given) | > 25 | > 100 |  |  |  |  |  |  |  |  |  |  | 
17 | CCONCc1ccc(OCCC(C)CCN2CCN(c3ccnc(N)c3)C2=O)cc1 (stereo not given) | 0.0119 | 7.37 |  |  |  |  |  |  |  |  |  |  | 
18 | CCO/N=C/c1cc(C)c(OCCC(C)CCN2CCN(c3ccnc(N)c3)C2=O)c(C)c1 (stereo not given) | > 25 | 12.8 |  |  |  |  |  |  |  |  |  |  | 
19 | CCO/N=C/c1ccc(OCCC(C)CCN2CCN(c3ccnc(O)c3)C2=O)cc1 (stereo not given) | > 25 | > 100 |  |  |  |  |  |  |  |  |  |  | 
20 | CC(CCOc1ccc(-c2noc(C(C)(C)C)n2)cc1)CCN1CCN(c2ccnc(N)c2)C1=O (stereo not given) | 0.0092 | 55 | 100 | 0 | 80 | 0 | 100 | 100 | 100 | 0 | 0 | 100 | Toxic
21 | CC(=O)Nc1cc(N2CCN(CCCCCOc3ccc(-c4noc(C)n4)cc3)C2=O)ccn1 | > 25 | > 100 |  |  |  |  |  |  |  |  |  |  | 
22 | Cc1cc(-c2noc(C(F)(F)F)n2)cc(C)c1OCCC(C)CCN1CCN(c2ccnc(N)c2)C1=O (stereo not given) | > 25 | > 100 |  |  |  |  |  |  |  |  |  |  | 
